Measurements as given in patent US20080241208A1, “Methods, Compositions and Devices For Promoting Anglogenesis” (priority 2005, published 2008).

How the values were obtained:
[1] = test system: Rabbits; assay: In-vivo angiogenesis rabbit subcutaneous implant studies
From the text: Rabbits were implanted subcutaneously with nitric oxide generating agent dibenzo[e,k]-2,3,8,9-tetramethyl-1,4,7,10-tetraaza-cyclododeca-1,3,7,9-tetraene, cyclen and plain polymer disks.

[2] = test system: HUVECs; assay: In-vitro angiogenesis model: network formation in collagen gel matrix; type: cell-based; conditions: pulsed with PMA, bFGF and NOC18 (10-9) for 2 hr followed by PMA, bFGF and VEGF-C for 70 hr; AngioQuant; FIG. 3
From the text: FIG. 4 depicts network formation in HUVECs cultured in collagen gel matrix and treated with PMA, bFGF, and VEGF-C for 72 hr (Positive control). […] Image on left of each figure is stained with phalloidin (cytoskeletal Actin-F marker) and the nuclear dye, Hoechst. Image on right depicts network formation (red lines) used by AngioQuant quantification program (Niemiströ et al 2005). Magnification=4×. The number of networks is 48 in FIG. 3, 44 in FIG. 4, 12 in FIG. 5.

Row | Compound | blood vessel formation around disks ([1]; explants sectioned and stained with H&E, 20× magnification) | angiogenic activity versus control ([1]; subcutaneous polymer disk explants at 28 d and 8 weeks) | number of networks [2]
1 | CC1=C(C)N=c2ccccc2=NC(C)=C(C)N=c2ccccc2=N1 [dibenzo[e,k]-2,3,8,9-tetramethyl-1,4,7,10-tetraaza-cyclododeca-1,3,7,9-tetraene] | increased blood vessel formation | increased angiogenic activity | 
2 | NCCN(CCN)/[N+]([O-])=N/O [NOC18] |  |  | 48
